According to PubChem BioAssay AID248 (DTP/NCI, 2004):
Values joined by “and” are separate entries in the source; they are usually repeats but may differ in a detail not shown here. Equal values may be shown once. Inconclusive results and toxic doses are left out. Rule as the data show it: active = T/C of 150% or more; inactive = T/C below 125%.

Tested on: L1210 leukemia ip in BDF1 mice, survival T/C
Assay: NCI In Vivo Anticancer Drug Screen. Data for tumor model L1210 Leukemia (intraperitoneal) in B6D2F1 (BDF1) mice
Conditions: endpoint: mean survival time, higher = longer survival
How it was run: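 Tumor was transplanted into mice, which were then dosed with test compound or vehicle alone. Survival was recorded for each group, and the treated figure was expressed relative to the control figure.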

[1] = dose: 100.0 mg/kg/injection, schedule: Q01DX009 (ip), vehicle: saline with Tween-80
[2] = dose: 100.0 mg/kg/injection, schedule: Q04DX003 (ip), vehicle: saline with Tween-80
[3] = dose: 200.0 mg/kg/injection, schedule: Q01DX009 (ip), vehicle: saline with Tween-80
[4] = dose: 200.0 mg/kg/injection, schedule: Q04DX003 (ip), vehicle: saline with Tween-80
[5] = dose: 400.0 mg/kg/injection, schedule: Q01DX009 (ip), vehicle: saline with Tween-80
[6] = dose: 400.0 mg/kg/injection, schedule: Q04DX002 (ip), vehicle: saline with Tween-80
[7] = dose: 400.0 mg/kg/injection, schedule: Q04DX003 (ip), vehicle: saline with Tween-80
[8] = dose: 12.5 mg/kg/injection, schedule: Q01DX009 (ip), vehicle: saline
[9] = dose: 25.0 mg/kg/injection, schedule: Q01DX009 (ip), vehicle: saline
[10] = dose: 50.0 mg/kg/injection, schedule: Q01DX009 (ip), vehicle: saline
[11] = dose: 100.0 mg/kg/injection, schedule: Q01DX009 (ip), vehicle: saline
[12] = dose: 100.0 mg/kg/injection, schedule: Q01DX001 (ip), vehicle: saline
[13] = dose: 100.0 mg/kg/injection, schedule: Q04DX003 (ip), vehicle: Klucel (hydroxypropylcellulose) (HPC)
[14] = dose: 200.0 mg/kg/injection, schedule: Q01DX001 (ip), vehicle: saline
[15] = dose: 200.0 mg/kg/injection, schedule: Q04DX003 (ip), vehicle: Klucel (hydroxypropylcellulose) (HPC)
[16] = dose: 400.0 mg/kg/injection, schedule: Q01DX001 (ip), vehicle: saline
[17] = dose: 400.0 mg/kg/injection, schedule: Q04DX003 (ip), vehicle: Klucel (hydroxypropylcellulose) (HPC)
[18] = dose: 100.0 mg/kg/injection, schedule: Q01DX009 (ip), vehicle: Klucel (hydroxypropylcellulose) (HPC)
[19] = dose: 200.0 mg/kg/injection, schedule: Q01DX009 (ip), vehicle: Klucel (hydroxypropylcellulose) (HPC)
[20] = dose: 400.0 mg/kg/injection, schedule: Q01DX009 (ip), vehicle: Klucel (hydroxypropylcellulose) (HPC)
[21] = dose: 100.0 mg/kg/injection, schedule: Q01DX001 (ip), vehicle: carboxymethylcellulose (CMC)
[22] = dose: 200.0 mg/kg/injection, schedule: Q01DX001 (ip), vehicle: carboxymethylcellulose (CMC)
[23] = dose: 400.0 mg/kg/injection, schedule: Q01DX001 (ip), vehicle: carboxymethylcellulose (CMC)
[24] = dose: 100.0 mg/kg/injection, schedule: Q04DX002 (ip), vehicle: saline with Tween-80
[25] = dose: 200.0 mg/kg/injection, schedule: Q04DX002 (ip), vehicle: saline with Tween-80
[26] = dose: 100.0 mg/kg/injection, schedule: Q04DX003 (ip), vehicle: saline
[27] = dose: 200.0 mg/kg/injection, schedule: Q04DX003 (ip), vehicle: saline
[28] = dose: 400.0 mg/kg/injection, schedule: Q04DX003 (ip), vehicle: saline

Measured: T/C

CCCC(C)c1ccc(C(C)=O)cc1 (stereo unspecified)
inactive: dose: 25.6 mg/kg/injection, schedule: Q04DX002 (ip), vehicle: saline with Tween-80 100 % of control | dose: 64.0 mg/kg/injection, schedule: Q04DX002 (ip), vehicle: saline with Tween-80 92 % of control | [1] 89 % of control | [2] 91 % of control | dose: 160.0 mg/kg/injection, schedule: Q04DX002 (ip), vehicle: saline with Tween-80 88 % of control | [3] 89 % of control | [4] 96 % of control | [5] 90 % of control | [6] 92 % of control | [7] 88 % of control

NC(CCCCNC(c1ccccc1)(c1ccccc1)c1ccccc1)C(=O)O (stereo unspecified)
inactive: [8] 102 % of control | [9] 101 % of control | [10] 101 % of control | [11] 97 % of control

Cc1nsc(N)n1
inactive: [8] 108 % of control | [9] 105 % of control | [10] 100 % of control | [12] 92 % of control | [13] 102 % of control | [14] 100 % of control | [15] 113 % of control | [16] 101 % of control | [17] 104 % of control

Cc1cc(Cl)ccc1NC(=O)c1ccc(Cl)cc1Cl
inactive: [18] 96 % of control | [13] 95 % of control | [19] 91 % of control | [15] 92 % of control | [20] 94 % of control | [17] 88 % of control

C[n+]1ccccc1CCC(=O)Nc1ccccc1
inactive: [1] 87 % of control

COc1cccc2c1OC(COS(C)(=O)=O)CO2 (stereo unspecified) (tested in a mixture with another compound)
inactive: [21] 95 % of control | [22] 95 % of control | [23] 97 % of control

CN(C)CCCn1nc(-c2ccccc2)oc1=O
inactive: dose: 75.0 mg/kg/injection, schedule: Q01DX001 (ip), vehicle: saline 96 % of control | dose: 150.0 mg/kg/injection, schedule: Q01DX001 (ip), vehicle: saline 87 % of control

Nc1nc2n(O)cc(C(O)C(O)CO)nc-2c(=O)n1 (stereo unspecified)
inactive: [12] 100 % of control | [14] 103 % of control | [16] 103 % of control

CCCCN(CCO)C(C#CC(C)(C)O)C(C)C (stereo unspecified)
inactive: [2] 95 % of control | [4] 101 % of control

CCCCCCC(C)(C)NC(N)=O
inactive: [12] 98 % of control | [14] 101 % of control | [16] 93 % of control

Nc1cc(N)c2cccnc2c1O
inactive: dose: 2.0 mg/kg/injection, schedule: Q01DX015 (ip), vehicle: saline 101 % of control | dose: 4.0 mg/kg/injection, schedule: Q01DX015 (ip), vehicle: saline 101 % of control

COc1ccc(/C=C(/C(=O)c2ccc(O)cc2)c2ccccc2)cc1
inactive: [21] 87 % of control | [22] 89 % of control | [23] 87 % of control

O=C1OC(=O)C2C3C=CC(C12)C1C2C(=O)OC(=O)C2C31 (stereo unspecified)
inactive: [2] 94 % of control | [4] 94 % of control | [7] 91 % of control

O=C(O)CC(NC(=O)OCc1ccccc1)c1ccc(Cl)cc1 (stereo unspecified)
inactive: dose: 100.0 mg/kg/injection, schedule: Q01DX001 (ip), vehicle: saline with Tween-80 90 % of control | [1] 100 % of control and 112 % of control | [24] 103 % of control | [2] 101 % of control | dose: 200.0 mg/kg/injection, schedule: Q01DX001 (ip), vehicle: saline with Tween-80 94 % of control | [3] 93 % of control and 102 % of control | [25] 103 % of control | [4] 93 % of control | dose: 400.0 mg/kg/injection, schedule: Q01DX001 (ip), vehicle: saline with Tween-80 101 % of control | [6] 92 % of control | [7] 101 % of control

O=[N+]([O-])c1cc(Br)cnc1Br
inactive: dose: 100.0 mg/kg/injection, schedule: Q01DX001 (ip), vehicle: Klucel (hydroxypropylcellulose) (HPC) 100 % of control | [18] 101 % of control | dose: 200.0 mg/kg/injection, schedule: Q01DX001 (ip), vehicle: Klucel (hydroxypropylcellulose) (HPC) 105 % of control | [19] 96 % of control | dose: 400.0 mg/kg/injection, schedule: Q01DX001 (ip), vehicle: Klucel (hydroxypropylcellulose) (HPC) 105 % of control | [20] 103 % of control

CC(=O)Nc1nc(C)c(CCC#N)c(=O)[nH]1
inactive: [11] 101 % of control | [26] 96 % of control | dose: 200.0 mg/kg/injection, schedule: Q01DX009 (ip), vehicle: saline 101 % of control | [27] 91 % of control | dose: 400.0 mg/kg/injection, schedule: Q01DX009 (ip), vehicle: saline 95 % of control | [28] 101 % of control

CCCC(Cc1ccccc1)N1CCCC1 (stereo unspecified)
inactive: dose: 3.12 mg/kg/injection, schedule: Q01DX009 (ip), vehicle: saline 103 % of control | dose: 6.25 mg/kg/injection, schedule: Q01DX009 (ip), vehicle: saline 103 % of control | [8] 97 % of control | [9] 103 % of control | dose: 25.0 mg/kg/injection, schedule: Q04DX003 (ip), vehicle: saline 92 % of control | dose: 50.0 mg/kg/injection, schedule: Q04DX003 (ip), vehicle: saline 95 % of control

CC1([N+](=O)[O-])COP(=O)(NCC2CCCO2)OC1 (stereo unspecified)
inactive: dose: 50.0 mg/kg/injection, schedule: Q01DX001 (ip), vehicle: carboxymethylcellulose (CMC) 98 % of control | [21] 104 % of control | [22] 104 % of control | [23] 93 % of control

O=C(NC(C(=O)O)c1ccccc1)OCc1ccccc1 (stereo unspecified)
inactive: [1] 111 % of control and 97 % of control | [3] 91 % of control and 92 % of control | [5] 89 % of control and 93 % of control

Cc1cccc(NC(=O)c2ccc(Cl)cc2Cl)n1 (tested in a mixture with another compound)
inactive: dose: 100.0 mg/kg/injection, schedule: Q04DX002 (ip), vehicle: Klucel (hydroxypropylcellulose) (HPC) 103 % of control | dose: 200.0 mg/kg/injection, schedule: Q04DX002 (ip), vehicle: Klucel (hydroxypropylcellulose) (HPC) 103 % of control | dose: 400.0 mg/kg/injection, schedule: Q04DX002 (ip), vehicle: Klucel (hydroxypropylcellulose) (HPC) 92 % of control

c1ccc(N2CCN(c3ccccc3)C2C2CO2)cc1 (stereo unspecified)
inactive: [26] 95 % of control | [27] 97 % of control | [28] 98 % of control

CN(C)C=Nc1cccc2cn[nH]c12
inactive: [24] 106 % of control | [25] 106 % of control | [6] 98 % of control
